Source: PubChem BioAssay AID1963825 (Molecular Pharmacology Branch, DTP, NCI, 2024)

Experiment: Anticancer human tumor 997537-175-T-J1-PDC patient-derived colon adenocarcinoma cell line growth inhibition [POLQ]
Conditions: 997537-175-T-J1-PDC complex spheroid viability, combination with POLQ inhibitors; second compound 0.1 µM; first compound 1 µM; active compounds read low
Procedure, shortened: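 PDC + HUVEC + MSC complex spheroids; POLQ inhibitors ± partner drugs; top conc. at/near clinical Cmax, else 10 microM (SN-38 1 microM), half-log dilutions; 37 degrees C, 5% CO2.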
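Further: luminescence signal used as a surrogate for viable cells; spheroids exposed to drugs for seven days before readout.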

Row | Structure (SMILES) | viability, T/C
1 | CCCS(=O)(=O)Nc1ccc(F)c(C(=O)c2c[nH]c3ncc(-c4ccc(Cl)cc4)cc23)c1F + Cc1cccc(N(C)C(=O)C2C(O)CCN2c2nc(C)cc(C(F)(F)F)c2C#N)c1 | 83%
2 | CCc1cc2c(N3CCc4c(cc(Cn5ccnc5)cc4-c4cn(C)nc4C(F)(F)F)C3=O)ccnc2c(OC)n1 + Cc1cccc(N(C)C(=O)C2C(O)CCN2c2nc(C)cc(C(F)(F)F)c2C#N)c1 | 95.5%

Same assay, conditions: 997537-175-T-J1-PDC complex spheroid viability, combination with POLQ inhibitors; second compound 0.1 µM; first compound 3.16 µM; active compounds read low

Row | Structure (SMILES) | viability, T/C
3 | Nc1ccn(C2OC(CO)C(O)C2(F)F)c(=O)n1 (configuration not stated) + Cc1cccc(N(C)C(=O)C2C(O)CCN2c2nc(C)cc(C(F)(F)F)c2C#N)c1 | 90.5%
4 | CC1COCCN1c1cc(-c2ccnn2C)c2ccnc(-c3ccn[nH]3)c2n1 (configuration not stated) + COC1C(OC(N)=O)C(O)C(Oc2ccc3c(O)c(NC(=O)c4ccc(O)c(CC=C(C)C)c4)c(=O)oc3c2C)OC1(C)C | 24.7%
5 | CC1COCCN1c1cc(C2(S(C)(=N)=O)CC2)nc(-c2ccnc3[nH]ccc23)n1 (configuration not stated) + Nc1ccc(C#CCN(C(=O)Cc2ncc(C(F)(F)F)cc2C(F)(F)F)c2ccc(F)cc2)nn1 | 65.5%
6 | CCCS(=O)(=O)Nc1ccc(F)c(C(=O)c2c[nH]c3ncc(-c4ccc(Cl)cc4)cc23)c1F + Cc1cccc(N(C)C(=O)C2C(O)CCN2c2nc(C)cc(C(F)(F)F)c2C#N)c1 | 74.5%
7 | CCc1cc2c(N3CCc4c(cc(Cn5ccnc5)cc4-c4cn(C)nc4C(F)(F)F)C3=O)ccnc2c(OC)n1 + Cc1cccc(N(C)C(=O)C2C(O)CCN2c2nc(C)cc(C(F)(F)F)c2C#N)c1 | 71%

Same assay, conditions: 997537-175-T-J1-PDC complex spheroid viability, combination with POLQ inhibitors; second compound 0.1 µM; first compound 10 µM; active compounds read low

Row | Structure (SMILES) | viability, T/C
8 | Nc1ccn(C2OC(CO)C(O)C2(F)F)c(=O)n1 (configuration not stated) + Cc1cccc(N(C)C(=O)C2C(O)CCN2c2nc(C)cc(C(F)(F)F)c2C#N)c1 | 52.8%
9 | CC1COCCN1c1cc(-c2ccnn2C)c2ccnc(-c3ccn[nH]3)c2n1 (configuration not stated) + COC1C(OC(N)=O)C(O)C(Oc2ccc3c(O)c(NC(=O)c4ccc(O)c(CC=C(C)C)c4)c(=O)oc3c2C)OC1(C)C | 52.9%
10 | CC1COCCN1c1cc(C2(S(C)(=N)=O)CC2)nc(-c2ccnc3[nH]ccc23)n1 (configuration not stated) + Nc1ccc(C#CCN(C(=O)Cc2ncc(C(F)(F)F)cc2C(F)(F)F)c2ccc(F)cc2)nn1 | 43.9%
11 | CCCS(=O)(=O)Nc1ccc(F)c(C(=O)c2c[nH]c3ncc(-c4ccc(Cl)cc4)cc23)c1F + Cc1cccc(N(C)C(=O)C2C(O)CCN2c2nc(C)cc(C(F)(F)F)c2C#N)c1 | 25.9%
12 | CCc1cc2c(N3CCc4c(cc(Cn5ccnc5)cc4-c4cn(C)nc4C(F)(F)F)C3=O)ccnc2c(OC)n1 + Cc1cccc(N(C)C(=O)C2C(O)CCN2c2nc(C)cc(C(F)(F)F)c2C#N)c1 | 58.3%

Same assay, conditions: 997537-175-T-J1-PDC complex spheroid viability, combination with POLQ inhibitors; second compound 0.316 µM; first compound 0.0316 µM; active compounds read low

Row | Structure (SMILES) | viability, T/C
13 | Nc1ccn(C2OC(CO)C(O)C2(F)F)c(=O)n1 (configuration not stated) + Cc1cccc(N(C)C(=O)C2C(O)CCN2c2nc(C)cc(C(F)(F)F)c2C#N)c1 | 91.4%
14 | CC1COCCN1c1cc(-c2ccnn2C)c2ccnc(-c3ccn[nH]3)c2n1 (configuration not stated) + COC1C(OC(N)=O)C(O)C(Oc2ccc3c(O)c(NC(=O)c4ccc(O)c(CC=C(C)C)c4)c(=O)oc3c2C)OC1(C)C | 88.1%
15 | CC1COCCN1c1cc(C2(S(C)(=N)=O)CC2)nc(-c2ccnc3[nH]ccc23)n1 (configuration not stated) + Nc1ccc(C#CCN(C(=O)Cc2ncc(C(F)(F)F)cc2C(F)(F)F)c2ccc(F)cc2)nn1 | 109%
16 | CCCS(=O)(=O)Nc1ccc(F)c(C(=O)c2c[nH]c3ncc(-c4ccc(Cl)cc4)cc23)c1F + Cc1cccc(N(C)C(=O)C2C(O)CCN2c2nc(C)cc(C(F)(F)F)c2C#N)c1 | 105%
17 | CCc1cc2c(N3CCc4c(cc(Cn5ccnc5)cc4-c4cn(C)nc4C(F)(F)F)C3=O)ccnc2c(OC)n1 + Cc1cccc(N(C)C(=O)C2C(O)CCN2c2nc(C)cc(C(F)(F)F)c2C#N)c1 | 107%

Same assay, conditions: 997537-175-T-J1-PDC complex spheroid viability, combination with POLQ inhibitors; second compound 0.316 µM; first compound 0.1 µM; active compounds read low

Row | Structure (SMILES) | viability, T/C
18 | Nc1ccn(C2OC(CO)C(O)C2(F)F)c(=O)n1 (configuration not stated) + Cc1cccc(N(C)C(=O)C2C(O)CCN2c2nc(C)cc(C(F)(F)F)c2C#N)c1 | 102%
19 | CC1COCCN1c1cc(-c2ccnn2C)c2ccnc(-c3ccn[nH]3)c2n1 (configuration not stated) + COC1C(OC(N)=O)C(O)C(Oc2ccc3c(O)c(NC(=O)c4ccc(O)c(CC=C(C)C)c4)c(=O)oc3c2C)OC1(C)C | 88.1%
20 | CC1COCCN1c1cc(C2(S(C)(=N)=O)CC2)nc(-c2ccnc3[nH]ccc23)n1 (configuration not stated) + Nc1ccc(C#CCN(C(=O)Cc2ncc(C(F)(F)F)cc2C(F)(F)F)c2ccc(F)cc2)nn1 | 103%
21 | CCCS(=O)(=O)Nc1ccc(F)c(C(=O)c2c[nH]c3ncc(-c4ccc(Cl)cc4)cc23)c1F + Cc1cccc(N(C)C(=O)C2C(O)CCN2c2nc(C)cc(C(F)(F)F)c2C#N)c1 | 78%
22 | CCc1cc2c(N3CCc4c(cc(Cn5ccnc5)cc4-c4cn(C)nc4C(F)(F)F)C3=O)ccnc2c(OC)n1 + Cc1cccc(N(C)C(=O)C2C(O)CCN2c2nc(C)cc(C(F)(F)F)c2C#N)c1 | 108%

Same assay, conditions: 997537-175-T-J1-PDC complex spheroid viability, combination with POLQ inhibitors; second compound 0.316 µM; first compound 0.316 µM; active compounds read low

Row | Structure (SMILES) | viability, T/C
23 | Nc1ccn(C2OC(CO)C(O)C2(F)F)c(=O)n1 (configuration not stated) + Cc1cccc(N(C)C(=O)C2C(O)CCN2c2nc(C)cc(C(F)(F)F)c2C#N)c1 | 79.3%
24 | CC1COCCN1c1cc(-c2ccnn2C)c2ccnc(-c3ccn[nH]3)c2n1 (configuration not stated) + COC1C(OC(N)=O)C(O)C(Oc2ccc3c(O)c(NC(=O)c4ccc(O)c(CC=C(C)C)c4)c(=O)oc3c2C)OC1(C)C | 49.7%
25 | CC1COCCN1c1cc(C2(S(C)(=N)=O)CC2)nc(-c2ccnc3[nH]ccc23)n1 (configuration not stated) + Nc1ccc(C#CCN(C(=O)Cc2ncc(C(F)(F)F)cc2C(F)(F)F)c2ccc(F)cc2)nn1 | 97.5%
26 | CCCS(=O)(=O)Nc1ccc(F)c(C(=O)c2c[nH]c3ncc(-c4ccc(Cl)cc4)cc23)c1F + Cc1cccc(N(C)C(=O)C2C(O)CCN2c2nc(C)cc(C(F)(F)F)c2C#N)c1 | 71.7%
27 | CCc1cc2c(N3CCc4c(cc(Cn5ccnc5)cc4-c4cn(C)nc4C(F)(F)F)C3=O)ccnc2c(OC)n1 + Cc1cccc(N(C)C(=O)C2C(O)CCN2c2nc(C)cc(C(F)(F)F)c2C#N)c1 | 86.2%
